{
  "source": "ChEMBL document CHEMBL3826941",
  "about": "“Optimization of pyrazole-containing 1,2,4-triazolo-[3,4-b]thiadiazines, a new class of STAT3 pathway inhibitors” (Bioorg Med Chem Lett, 2016)",
  "key": {"[1]": {"assay": "Antiproliferative activity against human CAL33 cells assessed as cell growth inhibition", "format": "functional, CAL-33"}, "[2]": {"assay": "Half life in mouse liver microsomes", "format": "ADME"}, "Liver microsome": {"system": "Liver microsome", "assay": "Half life in human liver microsomes", "format": "ADME"}, "[3]": {"assay": "Antiproliferative activity against human 686LN cells assessed as cell growth inhibition", "format": "functional"}, "[4]": {"assay": "Antiproliferative activity against human OSC19 cells assessed as cell growth inhibition", "format": "functional"}, "FaDu": {"system": "FaDu", "assay": "Antiproliferative activity against human FADU cells assessed as cell growth inhibition", "format": "functional"}, "[5]": {"biological_target": "T1, Signal transducer and activator of transcription 1-alpha/beta (Homo sapiens) (UniProt P42224)", "T1 sequence (whole entry)": "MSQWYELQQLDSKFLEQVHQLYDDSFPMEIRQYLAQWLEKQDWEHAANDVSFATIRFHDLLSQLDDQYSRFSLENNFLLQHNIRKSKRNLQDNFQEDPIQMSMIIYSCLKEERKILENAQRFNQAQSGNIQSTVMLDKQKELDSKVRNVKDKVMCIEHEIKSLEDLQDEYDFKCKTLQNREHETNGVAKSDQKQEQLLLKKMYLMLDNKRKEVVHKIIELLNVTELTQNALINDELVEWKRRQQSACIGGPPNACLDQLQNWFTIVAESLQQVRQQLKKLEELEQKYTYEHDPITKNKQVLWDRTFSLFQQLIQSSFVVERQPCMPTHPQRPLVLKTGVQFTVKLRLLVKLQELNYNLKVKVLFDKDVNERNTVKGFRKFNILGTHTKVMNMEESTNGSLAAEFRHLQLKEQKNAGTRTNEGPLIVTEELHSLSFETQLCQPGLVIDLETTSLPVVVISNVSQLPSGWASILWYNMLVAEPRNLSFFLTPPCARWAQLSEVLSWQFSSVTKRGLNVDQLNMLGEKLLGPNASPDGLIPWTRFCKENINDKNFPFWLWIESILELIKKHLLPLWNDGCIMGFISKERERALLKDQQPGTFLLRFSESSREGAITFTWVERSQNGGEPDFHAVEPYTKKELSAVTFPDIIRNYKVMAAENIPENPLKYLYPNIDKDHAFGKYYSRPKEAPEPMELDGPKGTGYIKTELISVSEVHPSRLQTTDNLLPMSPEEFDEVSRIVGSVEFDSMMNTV", "assay": "Inhibition of IFNgamma-induced STAT1 (unknown origin) at 50 uM"}, "[6]": {"biological_target": "Signal transducer and activator of transcription 3 (Homo sapiens) (UniProt P40763)", "sequence (P40763 whole entry)": "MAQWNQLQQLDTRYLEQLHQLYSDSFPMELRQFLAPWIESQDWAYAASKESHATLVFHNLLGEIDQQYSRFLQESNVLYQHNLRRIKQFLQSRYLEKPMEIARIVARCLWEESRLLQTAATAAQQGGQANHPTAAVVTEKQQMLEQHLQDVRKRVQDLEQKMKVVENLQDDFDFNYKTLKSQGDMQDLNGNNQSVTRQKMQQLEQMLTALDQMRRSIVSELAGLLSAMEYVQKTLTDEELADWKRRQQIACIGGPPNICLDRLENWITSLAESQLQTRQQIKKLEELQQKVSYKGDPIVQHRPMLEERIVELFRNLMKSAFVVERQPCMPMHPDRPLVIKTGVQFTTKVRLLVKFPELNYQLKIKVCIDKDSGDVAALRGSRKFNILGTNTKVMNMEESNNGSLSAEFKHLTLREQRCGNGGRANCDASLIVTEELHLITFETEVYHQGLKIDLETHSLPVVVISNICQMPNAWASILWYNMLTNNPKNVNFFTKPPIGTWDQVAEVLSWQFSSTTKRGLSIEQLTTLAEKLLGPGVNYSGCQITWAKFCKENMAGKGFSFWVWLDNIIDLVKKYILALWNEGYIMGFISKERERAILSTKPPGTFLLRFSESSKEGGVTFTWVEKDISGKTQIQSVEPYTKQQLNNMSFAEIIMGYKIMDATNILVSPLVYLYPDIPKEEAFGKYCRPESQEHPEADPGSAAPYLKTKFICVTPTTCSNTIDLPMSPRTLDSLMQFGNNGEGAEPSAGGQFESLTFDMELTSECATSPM", "assay": "Inhibition of STAT3 in IL6-induced human CAL33 cells assessed as inhibition of Bcl-XL gene levels at 3 to 100 uM by Western blot analysis", "format": "cell-based", "settings": "CAL-33"}, "[7]": {"biological_target": "Signal transducer and activator of transcription 3 (Homo sapiens) (UniProt P40763)", "assay": "Inhibition of STAT3 phosphorylation at Tyr705 in IL6-induced human CAL33 cells at 3 to 100 uM by Western blot analysis", "format": "cell-based", "settings": "CAL-33"}, "[8]": {"biological_target": "Signal transducer and activator of transcription 3 (Homo sapiens) (UniProt P40763)", "assay": "Inhibition of STAT3 phosphorylation at Tyr705 in IL6-induced human CAL33 cells assessed as phosphorylated STAT3 at Tyr705 to STAT3 ratio at 100 uM by Western blot analysis", "format": "cell-based", "settings": "CAL-33"}, "[9]": {"biological_target": "Signal transducer and activator of transcription 3 (Homo sapiens) (UniProt P40763)", "assay": "Inhibition of STAT3 in IL6-induced human CAL33 cells assessed as inhibition of cyclin D1 gene levels at 3 to 100 uM by Western blot analysis", "format": "cell-based", "settings": "CAL-33"}, "[10]": {"biological_target": "Signal transducer and activator of transcription 3 (Homo sapiens) (UniProt P40763)", "assay": "Inhibition of STAT3 phosphorylation at Tyr705 in IL6-induced human CAL33 cells assessed as phosphorylated STAT3 at Tyr705 to STAT3 ratio at 10 uM by Western blot analysis", "format": "cell-based", "settings": "CAL-33"}, "[11]": {"biological_target": "Signal transducer and activator of transcription 3 (Homo sapiens) (UniProt P40763)", "assay": "Inhibition of STAT3 phosphorylation at Tyr705 in IL6-induced human CAL33 cells assessed as phosphorylated STAT3 at Tyr705 to STAT3 ratio at 30 uM by Western blot analysis", "format": "cell-based", "settings": "CAL-33"}},
  "note": "Active and inactive are the calls of the source. The calls are words filed in the database; no cut-off is given here.",
  "data": [
    {"smiles": "CC1(C)Sc2nnc(-c3[nH]nc4c3CCC4)n2N=C1c1ccc(Cl)c(Cl)c1", "values": [
      {"measurement": "GI50", "setting": "[1]; Homo sapiens, CAL-33", "value": "> 50", "unit": "µM"}
    ]},
    {"smiles": "COc1ccc(C2=Nn3c(nnc3-c3cc(-c4ccc(Cl)cc4)n[nH]3)SC2C)cc1", "note": "(stereo in doubt; form 3)", "values": [
      {"measurement": "GI50", "setting": "[1]", "value": 21.8, "unit": "µM"}
    ]},
    {"smiles": "COc1ccc(C2=Nn3c(nnc3-c3cc(-c4ccc(F)cc4)n[nH]3)SC2C)cc1", "note": "(stereo unspecified)", "values": [
      {"measurement": "GI50", "setting": "[1]; Homo sapiens, CAL-33", "value": 29.5, "unit": "µM"}
    ]},
    {"smiles": "Clc1ccc(C2=Nn3c(nnc3-c3[nH]nc4c3CCC4)SC2)cc1Cl", "values": [
      {"measurement": "GI50", "setting": "[1]; Homo sapiens, CAL-33", "value": 14, "unit": "µM"},
      {"measurement": "t1/2", "setting": "[2]", "value": 4, "unit": "min"},
      {"measurement": "t1/2", "setting": "Liver microsome", "value": 14, "unit": "min"},
      {"measurement": "GI50", "setting": "[3]", "value": 14, "unit": "µM"},
      {"measurement": "GI50", "setting": "[4]", "value": 14, "unit": "µM"},
      {"measurement": "GI50", "setting": "FaDu", "value": 14, "unit": "µM"},
      {"measurement": "inhibition", "setting": "[5]", "value": "inactive"}
    ]},
    {"smiles": "COc1ccc(C2=Nn3c(nnc3-c3[nH]nc4c3CCC4)SC2C(C)C)cc1", "note": "(stereo unspecified)", "values": [
      {"measurement": "GI50", "setting": "[1]; Homo sapiens, CAL-33", "value": 0.4, "unit": "µM"}
    ]},
    {"smiles": "CC(C)CC1Sc2nnc(-c3[nH]nc4c3CCC4)n2N=C1c1ccc(Cl)c(Cl)c1", "note": "(stereo unspecified)", "values": [
      {"measurement": "GI50", "setting": "[1]; Homo sapiens, CAL-33", "value": 3.5, "unit": "µM"}
    ]},
    {"smiles": "COc1ccc(C2=Nn3c(nnc3-c3cc(-c4ccc(Cl)cc4)n[nH]3)SC2C)cc1", "note": "(stereo in doubt; form 1) [listing 1 of 2 here]", "values": [
      {"measurement": "GI50", "setting": "[1]", "value": 2.2, "unit": "µM"},
      {"measurement": "GI50", "setting": "[3]", "value": 17.4, "unit": "µM"},
      {"measurement": "GI50", "setting": "[4]", "value": 14.9, "unit": "µM"},
      {"measurement": "GI50", "setting": "FaDu", "value": 8.4, "unit": "µM"}
    ]},
    {"smiles": "COc1ccc(C2=Nn3c(nnc3-c3cc(-c4ccccc4)n[nH]3)SC2CC(C)C)cc1", "note": "(stereo unspecified)", "values": [
      {"measurement": "GI50", "setting": "[1]; Homo sapiens, CAL-33", "value": 0.5, "unit": "µM"}
    ]},
    {"smiles": "Clc1ccc(C2=Nn3c(nnc3-c3[nH]nc4c3CCC4)SC2Cc2ccccc2)cc1Cl", "note": "(stereo unspecified)", "values": [
      {"measurement": "GI50", "setting": "[1]; Homo sapiens, CAL-33", "value": 3.3, "unit": "µM"}
    ]},
    {"smiles": "COc1ccc(C2=Nn3c(nnc3-c3[nH]nc4c3CCC4)SC2C)cc1", "note": "(stereo unspecified)", "values": [
      {"measurement": "GI50", "setting": "[1]; Homo sapiens, CAL-33", "value": 0.18, "unit": "µM"},
      {"measurement": "GI50", "setting": "[3]", "value": 0.88, "unit": "µM"},
      {"measurement": "GI50", "setting": "[4]", "value": 3.1, "unit": "µM"},
      {"measurement": "GI50", "setting": "FaDu", "value": 1.3, "unit": "µM"}
    ]},
    {"smiles": "CC1Sc2nnc(-c3[nH]nc4c3CCC4)n2N=C1c1ccc(Cl)c(Cl)c1", "note": "(stereo unspecified)", "values": [
      {"measurement": "GI50", "setting": "[1]; Homo sapiens, CAL-33", "value": 1.9, "unit": "µM"}
    ]},
    {"smiles": "COc1ccc(C2=Nn3c(nnc3-c3cc(-c4ccc(Cl)cc4)n[nH]3)SC2C)cc1", "note": "(stereo in doubt; form 2)", "values": [
      {"measurement": "GI50", "setting": "[1]", "value": 2.7, "unit": "µM"}
    ]},
    {"smiles": "CC1Sc2nnc(-c3cc(-c4ccccc4)n[nH]3)n2N=C1c1ccccc1", "note": "(stereo unspecified)", "values": [
      {"measurement": "GI50", "setting": "[1]; Homo sapiens, CAL-33", "value": 34.1, "unit": "µM"},
      {"measurement": "t1/2", "setting": "[2]", "value": 10, "unit": "min"},
      {"measurement": "t1/2", "setting": "Liver microsome", "value": 27, "unit": "min"},
      {"measurement": "GI50", "setting": "[3]", "value": 32.2, "unit": "µM"},
      {"measurement": "inhibition", "setting": "[6]", "value": "Active"},
      {"measurement": "GI50", "setting": "[4]", "value": 31.3, "unit": "µM"},
      {"measurement": "GI50", "setting": "FaDu", "value": 32.7, "unit": "µM"},
      {"measurement": "inhibition", "setting": "[7]", "value": "Active"},
      {"measurement": "inhibition", "setting": "[8]", "value": 99, "unit": "%"},
      {"measurement": "inhibition", "setting": "[9]", "value": "Active"},
      {"measurement": "inhibition", "setting": "[10]", "value": 15, "unit": "%"},
      {"measurement": "inhibition", "setting": "[11]", "value": 28, "unit": "%"}
    ]},
    {"smiles": "Clc1ccc(C2=Nn3c(nnc3-c3cc(-c4ccccc4)[nH]n3)SC2)cc1", "values": [
      {"measurement": "GI50", "setting": "[1]; Homo sapiens, CAL-33", "value": 27, "unit": "µM"},
      {"measurement": "GI50", "setting": "[3]", "value": 27, "unit": "µM"},
      {"measurement": "GI50", "setting": "[4]", "value": 27, "unit": "µM"},
      {"measurement": "GI50", "setting": "FaDu", "value": 27, "unit": "µM"},
      {"measurement": "inhibition", "setting": "[5]", "value": "inactive"}
    ]},
    {"smiles": "CC1Sc2nnc(-c3cc(-c4ccc(F)cc4)n[nH]3)n2N=C1c1ccccc1", "note": "(stereo unspecified)", "values": [
      {"measurement": "GI50", "setting": "[1]; Homo sapiens, CAL-33", "value": 36.3, "unit": "µM"}
    ]},
    {"smiles": "COc1ccc(C2=Nn3c(nnc3-c3cc(-c4ccccc4)n[nH]3)SC2CCN)cc1", "note": "(stereo unspecified)", "values": [
      {"measurement": "GI50", "setting": "[1]; Homo sapiens, CAL-33", "value": 2.5, "unit": "µM"}
    ]},
    {"smiles": "CC(C)C1Sc2nnc(-c3[nH]nc4c3CCC4)n2N=C1c1ccc(Cl)c(Cl)c1", "note": "(stereo unspecified)", "values": [
      {"measurement": "GI50", "setting": "[1]; Homo sapiens, CAL-33", "value": 8.2, "unit": "µM"}
    ]},
    {"smiles": "COc1ccc(C2=Nn3c(nnc3-c3cc(-c4ccc(Cl)cc4)n[nH]3)SC2C)cc1", "note": "(stereo in doubt; form 1) [listing 2 of 2 here]", "values": [
      {"measurement": "inhibition", "setting": "[6]", "value": "Active"},
      {"measurement": "inhibition", "setting": "[7]", "value": "Active"},
      {"measurement": "inhibition", "setting": "[8]", "value": 99.7, "unit": "%"},
      {"measurement": "inhibition", "setting": "[9]", "value": "Active"},
      {"measurement": "inhibition", "setting": "[10]", "value": 21, "unit": "%"},
      {"measurement": "inhibition", "setting": "[11]", "value": 55, "unit": "%"}
    ]},
    {"smiles": "COCCC1Sc2nnc(-c3cc(-c4ccccc4)n[nH]3)n2N=C1c1ccc(OC)cc1", "note": "(stereo unspecified)", "values": [
      {"measurement": "GI50", "setting": "[1]; Homo sapiens, CAL-33", "value": 0.04, "unit": "µM"}
    ]}
  ]
}
